Assays:
human GR [1] = target: T1, human GR (Homo sapiens, UniProt P04150); assay: Transrepression Assay (GITAR), TNFα-β-lactamase reporter in U937 cells; format: cell-based; parameters: U937 cells contain an endogenous glucocorticoid receptor (GR); endogenous in cells; host or cells: U937 cells stably transfected with the TNF-alpha promoter/beta-lactamase reporter; details: for GITAR > GRAMM % SEP: GITAR Emax minus GRAMMER Emax
T1 sequence (P04150 1-777): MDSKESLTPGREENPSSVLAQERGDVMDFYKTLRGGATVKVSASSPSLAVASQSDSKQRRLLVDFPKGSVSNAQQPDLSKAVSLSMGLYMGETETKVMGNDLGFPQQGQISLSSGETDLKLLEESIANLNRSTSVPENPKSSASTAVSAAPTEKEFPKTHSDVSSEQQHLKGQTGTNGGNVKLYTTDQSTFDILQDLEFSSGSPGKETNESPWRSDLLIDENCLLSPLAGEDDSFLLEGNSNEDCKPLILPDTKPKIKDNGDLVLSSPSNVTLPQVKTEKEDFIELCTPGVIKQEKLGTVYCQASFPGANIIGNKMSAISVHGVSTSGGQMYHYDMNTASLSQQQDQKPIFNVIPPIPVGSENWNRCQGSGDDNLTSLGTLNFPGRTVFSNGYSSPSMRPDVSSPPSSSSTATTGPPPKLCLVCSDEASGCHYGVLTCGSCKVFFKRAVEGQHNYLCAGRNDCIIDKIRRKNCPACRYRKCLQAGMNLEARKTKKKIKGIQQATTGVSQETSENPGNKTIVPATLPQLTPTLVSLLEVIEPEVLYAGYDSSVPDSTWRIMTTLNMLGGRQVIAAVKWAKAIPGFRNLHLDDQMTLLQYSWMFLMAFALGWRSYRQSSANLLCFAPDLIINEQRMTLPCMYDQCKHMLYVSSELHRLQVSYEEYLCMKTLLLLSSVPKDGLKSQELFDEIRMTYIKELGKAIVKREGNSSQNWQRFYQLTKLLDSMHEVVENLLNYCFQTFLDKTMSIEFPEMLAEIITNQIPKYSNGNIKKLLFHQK
Description: This assay assesses the ability of test compounds to control transcription from the TNFα-β-lactamase reporter gene in U937 cells, a human myelomonocytic leukemia cell line that naturally expresses the human GR. The assay measures compound dependent-repression of the TNFa promoter linked to a reporter gene.
The human U937 cells that had been stablely transfected with the TNF-α promoter driving β-lactamase are used for this assay. U937 cells contain an endogenous glucocorticoid receptor (GR). Cells are maintained in RPMI 1640 Growth medium (Gibco Cat#11875-093) containing 25 mM HEPES, 10% FBS, 2 mM L-Glutamine, 1 mM Sodium pyruvate, 25 μg/ml Gentamicin (Gibco Cat#15710-064), 1:1000 2-Mercaptoethanol (Gibco Cat#21985-023) and 0.8 mg/ml G418 (Gibco Cat#10131-027). The density of the cells in the flask needs to be about 1×10^6−3×10^6/ml at the time of harvest. Usually, the cells are split to 1.2˜1.4×10^5/ml (1:10) 3 days prior to the assay. 50,000 cells/well are plated in 96 well black-walled plates the day of assay. Test compounds are added 10 μL/well, and cells are incubated at 37° C. for 30˜45 min. For assaying compounds, first dilute 1:10 in DMSO to make 1 mM, then further dilute 1:100 in medium to make 10× stock prior to adding to the cells. Add 50 ng/mlPMA (Sigma, cat# P8139) 10 μL/well to a final concentration 5 ng/ml, and 1 μg/ml LPS (Sigma, cat# L4130) 10 μL/well to a final concentration 100 ng/ml. Incubate cells at 37° C. overnight for ˜18 hr. PMA is stored frozen as 100 μg/ml stock in DMSO. Dilute 1:10 in DMSO for a working stock of 10 μg/ml and store at −20 C. For assaying, dilute the 10 μg/ml working stock 1:200 in medium to make a 10× solution (50 ng/ml). Store frozen LPS at 1 mg/ml in PBS, dilute 1:1000 in medium to make 10× (1 μg/ml) for the assay. Add 6× loading buffer (CCF2-AM) 20 μL/well, and incubate at room temperature for 70˜90 min. […] The activity repressed by 100 nM dexamethasone alone is set as 100% activity.

human GR [2] = target: T1, human GR; assay: Trans-Activation Modulation of Glucocorticoid Receptor (GRAMMER), MMTV-LUC reporter, agonist mode; format: cell-based; parameters: endogenous in cells; details: maximum activity; for Emax: A549, A549 cells, read-out: Transactivation A549 Cells GRAMMER Emax
Description: This assay assesses the ability of test compounds to control transcription from the MMTV-LUC reporter gene in lung adenocarcinoma A549 cells or MDA-MB-453 cells, a human breast cancer cell line that naturally expresses the human GR. The assay measures induction of a modified MMTV LTR/promoter linked to the LUC reporter gene.
The routine transient assay consists of plating 7,000-25,000 cells/well of a white, clear-bottom 96-well plate. Alternatively, 384-well plates can be used at a cell concentration of 10,000/well. The media that the cells are plated in is “exponential growth medium” which consists of phenol red-free RPMI1640 containing 10% FBS, 4 mM L-glutamine, 20 mM HEPES, 10 ug/mL human insulin, and 20 ug/mL gentamicin. Incubator conditions are 37° C. and 5% CO2. The transfection is done in batch mode. The cells are trypsinized and counted to the right cell number in the proper amount of fresh media. It is then gently mixed with the FuGene6/DNA mix and plated onto the 96 or 384-well plate, all the wells receive 100 uL or 40 uL, respectively, of medium+lipid/DNA complex then incubated 37° C. overnight. The transfection cocktail consists of serum-free OptiMEM, FuGene6 reagent and DNA. The manufacturer's (Roche Biochemical) protocol for cocktail setup is as follows: The lipid to DNA ratio is approximately 2.5:1 and the incubation time is 20 min at room temperature. Sixteen to 24 hours after transfection, the cells are treated with dexamethasone to a final concentration of 10 nM as well as the compound of interest, such that final DMSO (vehicle) concentration is equal to or less than 1%. Each plate also contains samples that are treated with 10 nM dexamethasone alone, which is used as the 100% activity control. The cells are exposed to the compounds for 24 hours. After 24 hours, the cells are lysed by a Promega cell culture lysis buffer for approximately 30 min and then the luciferase activity in the extracts is assayed in the 96-well format luminometer. In 384-well format, Steady-Glo (Promega) or Steady-Lite (PerkinElmer) can be used by adding an equal volume of reagent to the media present in each well. Activity induced by 10 nM dexamethasone alone is set at 100% activity. Antagonist activity is calculated by determining the decrease in dexamethasone-induced activity in response to compound treatment relative to samples that were treated with dexamethasone alone. […] This transactivation assay can be performed in an agonist and antagonist mode to identify these different activities.

[3] = U-937, U937 cells, maximum activity, read-out: Transrepression U937 Cells GITAR Emax
[4] = U-937, activity repressed by 100 nM dexamethasone alone set as 100%, read-out: maximal activity in the transrepression (GITAR) assay

| GITAR > GRAMM % SEP (human GR [1]) | Emax (human GR [1]; [3]) | Emax (human GR [1]; [4]) | Emax (human GR [2]) | Transrepression U937 Cells GITAR Emax (human GR [1]; U937 cells, maximum activity) | Transactivation A549 Cells GRAMMER Emax (human GR [2]; A549 cells) | Compound |
| --- | --- | --- | --- | --- | --- | --- |
| 21.0% | 23.8% | > 5% | 2.7% |  |  | C[C@]12Cc3cnn(-c4ccc(F)cc4)c3C=C1CC[C@@H]2CN(CCO)S(=O)(=O)c1ccc(-c2cnco2)s1 [Example 57, N-{[(4αR,5S)-1-(4-fluorophenyl)-4α-methyl-1,4,4α,5,6,7-hexahydrocyclopenta[f]indazol-5-yl]methyl}-N-(2-hydroxyethyl)-5-(1,3-oxazol-5-yl)thiophene-2-sulfonamide] |
| 32.6% | 95.4% | > 5% | 62.8% |  |  | C[C@]12Cc3cnn(-c4ccc(F)cc4)c3C=C1CC[C@@H]2CN(CCc1ccccc1F)S(=O)(=O)C1CC1 [Example 101, N-[2-(2-fluorophenyl)ethyl]-N-{[(4αR,5S)-1-(4-fluorophenyl)-4α-methyl-1,4,4α,5,6,7-hexahydrocyclopenta[f]indazol-5-yl]methyl}cyclopropanesulfonamide] |
| 29.8% | 64.2% | > 5% | 34.4% |  |  | C[C@]12Cc3cnn(-c4ccc(F)cc4)c3C=C1CC[C@@H]2CN(CC1CC1)S(=O)(=O)c1ccccc1Cl [Example 12, 2-chloro-N-(cyclopropylmethyl)-N-{[(4αR,5S)-1-(4-fluorophenyl)-4α-methyl-1,4,4α,5,6,7-hexahydrocyclopenta[f]indazol-5-yl]methyl}benzenesulfonamide] |
| 43.9% |  |  |  | 71.8% | 27.9% | C[C@]12Cc3cnn(-c4ccc(F)cc4)c3C=C1CC[C@@H]2CN(CC1CC1)S(=O)(=O)c1ccccc1Cl [Example 22, 2-chloro-N-(cyclopropylmethyl)-N-{[(4αR,5S)-1-(4-fluorophenyl)-4α-methyl-1,4,4α,5,6,7-hexahydrocyclopenta[f]indazol-5-yl]methyl}benzenesulfonamide] |
| 42.5% | 68.5% | > 5% | 26% |  |  | C[C@]12Cc3cnn(-c4ccc(F)cc4)c3C=C1CC[C@@H]2CN(CCO)S(=O)(=O)c1ccc(C#N)cc1 [Example 62, 4-cyano-N-{[(4αR,5S)-1-(4-fluorophenyl)-4α-methyl-1,4,4α,5,6,7-hexahydrocyclopenta[f]indazol-5-yl]methyl}-N-(2-hydroxyethyl)benezenesulfonamide] |

Source: patent publication US8299048B2, “Hexahydrocyclopentyl[f]indazole sulfonamides and derivatives thereof as selective glucocorticoid receptor modulators” (Merck Sharp & Dohme Corp., priority 2008, dated 2012)
